The record followed here is PubChem BioAssay (NCI).

Test systems include HT29 colon; MDA-MB-435; NCI-H226 lung; UACC-62 melanoma; SR leukemia; KM12 colon; TK-10 renal; OVCAR-8 ovarian; MCF7 breast; SNB-75 CNS; NCI-H522 lung; HCT-116 colon; COLO 205 colon; UACC-257 melanoma; NCI-H460 lung; HCT-15 colon; SN12C renal; MOLT-4 leukemia; RXF 393 renal.
Holding throughout (assay): DTP human tumour cell line panel, 48 h

The TGI is the concentration giving total growth inhibition.

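48-hour exposure; five concentrations; linearly interpolated endpoints. TGI is the concentration that stops growth completely.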 A value given as a limit tells only on which side of the number the result lay.

Consider `COc1ccc(NCC(=O)Nn2c(C)nc3ccc(S(=O)(=O)Nc4ccc(OC)cc4)cc3c2=O)cc1`, for which the TGI with HT29 colon, with MDA-MB-435, with NCI-H226 lung, in the test on UACC-62 melanoma, in the test on SR leukemia and in the test on KM12 colon was > 100 µM in each case. For the same compound, the TGI with TK-10 renal, with OVCAR-8 ovarian, with MCF7 breast, in the test on SNB-75 CNS, in the test on NCI-H522 lung and in the test with HCT-116 colon was > 100 µM in each case. For the same compound, the TGI in the test on COLO 205 colon, in the test on UACC-257 melanoma, with NCI-H460 lung, in the test on HCT-15 colon, in the test with SN12C renal and in the test with MOLT-4 leukemia was > 100 µM in each case.

For `NCCCc1ccc2oc3ccccc3c2c1`, the TGI with HT29 colon is 26 µM; with MDA-MB-435 it was 29.1 µM; in the test with NCI-H226 lung, 35.5 µM; in the test with UACC-62 melanoma it was 31.9 µM; in the test with RXF 393 renal, 32.4 µM; in the test on SR leukemia, 52.2 µM. For the same compound, the TGI in the test with TK-10 renal came to 30.4 µM; in the test with OVCAR-8 ovarian, 57 µM; in the test with MCF7 breast, 34.2 µM; in the test with SNB-75 CNS, 30.6 µM; with NCI-H522 lung, 40 µM; with HCT-116 colon, 29.7 µM. In addition, the TGI was determined as 32.8 µM in the test with COLO 205 colon; 32.1 µM in the test with UACC-257 melanoma; 34.1 µM with NCI-H460 lung; 36.4 µM with HCT-15 colon; 31.9 µM with SN12C renal; 30.5 µM in the test with MOLT-4 leukemia.

As to `CCOC(=O)C(NC(=O)NC(C(=O)OCC)C(=O)OCC)C(=O)OCC`, the TGI with HT29 colon, in the test with MDA-MB-435, with NCI-H226 lung, with UACC-62 melanoma, with RXF 393 renal and with SR leukemia was > 100 µM throughout. The TGI in the test with TK-10 renal, with OVCAR-8 ovarian, with MCF7 breast, in the test with NCI-H522 lung, in the test with HCT-116 colon and with NCI-H460 lung was > 100 µM in each case. Besides, the TGI in the test with HCT-15 colon, with SN12C renal and in the test with MOLT-4 leukemia was > 100 µM throughout.

Consider `CCc1cc2c(cc1CCCC(=O)O)CC1(Cc3ccc(C(=O)O)cc3C1)C2` (stereo not drawn), for which the TGI in the test on HT29 colon, in the test with MDA-MB-435, with NCI-H226 lung, with RXF 393 renal, with SR leukemia and with KM12 colon was > 100 µM throughout. For the same compound, the TGI with TK-10 renal, with OVCAR-8 ovarian, in the test with MCF7 breast, in the test on SNB-75 CNS, in the test with NCI-H522 lung and in the test on HCT-116 colon was > 100 µM in each case. The TGI in the test with COLO 205 colon, with UACC-257 melanoma, in the test with NCI-H460 lung, in the test on HCT-15 colon, in the test on SN12C renal and with MOLT-4 leukemia was > 100 µM each time.

For the compound `CCOC(=O)C1(Cc2c[nH]c3ccccc23)C(O)CCCN1C(C)=O` (stereo not drawn), the TGI with HT29 colon, in the test on MDA-MB-435, with NCI-H226 lung, in the test with UACC-62 melanoma, in the test on RXF 393 renal and in the test with SR leukemia was > 100 µM throughout. Moreover, the TGI in the test with KM12 colon, in the test on TK-10 renal, in the test with OVCAR-8 ovarian, in the test with MCF7 breast, in the test on SNB-75 CNS and with HCT-116 colon was > 100 µM throughout. The TGI in the test with COLO 205 colon, in the test on UACC-257 melanoma, in the test with NCI-H460 lung, with HCT-15 colon and in the test with MOLT-4 leukemia was > 100 µM each time.

For the compound `CC1CC/C(=C\c2ccc(N(C)C)cc2)C(=O)/C1=C/c1ccc(N(C)C)cc1` (stereo not drawn), the TGI in the test on HT29 colon, with MDA-MB-435, in the test with NCI-H226 lung, in the test on UACC-62 melanoma, in the test with SR leukemia and in the test with KM12 colon was > 100 µM each time. The TGI in the test with TK-10 renal, in the test with OVCAR-8 ovarian, with MCF7 breast, in the test on SNB-75 CNS, with NCI-H522 lung and in the test on HCT-116 colon was > 100 µM throughout. In addition, the TGI in the test with COLO 205 colon, in the test on UACC-257 melanoma, with HCT-15 colon, in the test with SN12C renal and in the test with MOLT-4 leukemia was > 100 µM in each case.

Consider `O=C1N[C@@H]([C@H](CCCCCO)OC(=O)c2ccccc2)CO1`, for which the TGI with HT29 colon, in the test on MDA-MB-435, in the test with NCI-H226 lung, in the test on UACC-62 melanoma, in the test on RXF 393 renal and with SR leukemia was > 100 µM each time. In addition, the TGI in the test on KM12 colon, with TK-10 renal, with OVCAR-8 ovarian, in the test on MCF7 breast, with SNB-75 CNS and with HCT-116 colon was > 100 µM throughout. Moreover, the TGI in the test on UACC-257 melanoma, with NCI-H460 lung, in the test on HCT-15 colon, in the test on SN12C renal and in the test with MOLT-4 leukemia was > 100 µM throughout.

In the case of `O=C(NCCNCCO)N/N=C/c1ccc([N+](=O)[O-])cc1`, the TGI with HT29 colon, in the test with MDA-MB-435, in the test with NCI-H226 lung, in the test on UACC-62 melanoma, with SR leukemia and in the test on KM12 colon was > 100 µM throughout. Further, the TGI in the test on TK-10 renal is > 100 µM; with OVCAR-8 ovarian, > 100 µM; with MCF7 breast, > 100 µM; in the test on SNB-75 CNS, 98.5 µM; in the test on NCI-H522 lung it was > 100 µM; in the test with HCT-116 colon, > 100 µM. Besides, the TGI in the test on COLO 205 colon, with UACC-257 melanoma, in the test on NCI-H460 lung, in the test on HCT-15 colon, in the test on SN12C renal and in the test on MOLT-4 leukemia was > 100 µM throughout.
